From US7452905B2, “Phenylalanine derivatives” (Ajinomoto Co., Inc., priority 2000, dated 2008)

molecular target: T1, integrin α4β7 (Homo sapiens, UniProt P13612+P26010); test: VCAM antagonistic activity (VCAM-1/α4β7 binding assay), RPMI-8866 cells binding to VCAM-1; format: cell-based; conditions: RPMI-8866 cells binding to recombinant human VCAM-1, binding buffer with 4 mM MnCl2; 50% binding inhibition; read-out: Antagonistic Activity IC50 α 4 β 7/VCAM
T1 construct: lymphoma cell strain RPMI-8866 of human B cells, known to express integrin α4β7; endogenous in cells; host or cells: RPMI-8866
T1 sequence (P13612 34-1032): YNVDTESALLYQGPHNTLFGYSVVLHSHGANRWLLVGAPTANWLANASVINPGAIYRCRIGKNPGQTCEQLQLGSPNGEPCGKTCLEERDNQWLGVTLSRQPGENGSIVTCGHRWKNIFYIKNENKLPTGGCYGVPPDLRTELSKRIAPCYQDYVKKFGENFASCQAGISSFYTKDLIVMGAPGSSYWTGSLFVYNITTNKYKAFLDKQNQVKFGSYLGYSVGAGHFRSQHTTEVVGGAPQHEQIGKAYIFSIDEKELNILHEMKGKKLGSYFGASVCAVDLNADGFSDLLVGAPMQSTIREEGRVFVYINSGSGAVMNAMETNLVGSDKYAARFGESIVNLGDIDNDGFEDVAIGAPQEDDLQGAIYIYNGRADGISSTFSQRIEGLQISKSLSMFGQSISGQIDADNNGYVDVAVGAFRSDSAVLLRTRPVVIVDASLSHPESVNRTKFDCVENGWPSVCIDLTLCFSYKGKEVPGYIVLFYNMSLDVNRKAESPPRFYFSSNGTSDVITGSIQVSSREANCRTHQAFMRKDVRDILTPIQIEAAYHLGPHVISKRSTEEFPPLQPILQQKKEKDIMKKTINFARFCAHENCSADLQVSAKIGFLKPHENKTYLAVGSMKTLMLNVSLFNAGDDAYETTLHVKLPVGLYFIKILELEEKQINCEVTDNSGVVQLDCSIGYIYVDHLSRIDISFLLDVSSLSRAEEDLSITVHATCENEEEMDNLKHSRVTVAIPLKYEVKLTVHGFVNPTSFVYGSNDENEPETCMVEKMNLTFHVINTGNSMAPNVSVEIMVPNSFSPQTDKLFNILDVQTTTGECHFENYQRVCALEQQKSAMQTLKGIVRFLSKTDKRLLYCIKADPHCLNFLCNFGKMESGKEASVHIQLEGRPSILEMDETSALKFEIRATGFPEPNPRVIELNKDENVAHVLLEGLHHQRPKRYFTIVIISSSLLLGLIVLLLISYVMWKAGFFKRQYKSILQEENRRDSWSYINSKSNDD
T1 sequence (P26010 20-798): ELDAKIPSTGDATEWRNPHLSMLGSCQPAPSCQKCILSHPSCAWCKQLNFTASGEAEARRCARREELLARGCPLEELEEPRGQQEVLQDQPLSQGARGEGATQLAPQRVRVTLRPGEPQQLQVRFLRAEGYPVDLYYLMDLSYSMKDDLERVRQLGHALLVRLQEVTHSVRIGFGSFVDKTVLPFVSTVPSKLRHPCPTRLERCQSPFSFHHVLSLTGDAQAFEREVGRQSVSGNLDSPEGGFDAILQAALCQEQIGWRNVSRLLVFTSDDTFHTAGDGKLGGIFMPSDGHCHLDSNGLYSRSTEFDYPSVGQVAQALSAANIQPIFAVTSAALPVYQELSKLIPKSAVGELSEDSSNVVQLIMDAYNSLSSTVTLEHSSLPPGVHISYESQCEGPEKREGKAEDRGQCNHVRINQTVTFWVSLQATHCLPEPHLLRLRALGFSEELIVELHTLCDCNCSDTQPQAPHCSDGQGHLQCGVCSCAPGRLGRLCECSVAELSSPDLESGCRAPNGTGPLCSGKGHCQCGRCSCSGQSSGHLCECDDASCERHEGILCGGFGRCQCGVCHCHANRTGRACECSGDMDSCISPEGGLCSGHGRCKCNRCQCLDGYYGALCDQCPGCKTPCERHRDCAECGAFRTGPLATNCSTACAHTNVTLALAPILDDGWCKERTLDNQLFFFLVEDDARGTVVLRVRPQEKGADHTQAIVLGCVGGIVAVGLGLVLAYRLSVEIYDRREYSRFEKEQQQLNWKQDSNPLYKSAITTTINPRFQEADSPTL
Experimental: VCAM Antagonistic Activity (VCAM-1/α4β7 Binding Assay)
The capacity of a test substance antagonistic to the binding of lymphoma cell strain RPMI-8866 of human B cells, known to express integrin α4β7, to VCAM-1 was determined. 100 μl/well of a solution (500 ng/ml) of recombinant human VCAM-1 (R & D systems) solution diluted with buffer A (0.1 M NaHCO3, pH 9.6) was added to a micro titer plate having 96 wells (Nunc Maxisorp). After the incubation at 4° C. overnight, unbound VCAM-1 was removed by washing once with PBS. After completion of the washing, a buffer (buffer B) obtained by diluting Block Ace (Dainippon Pharmaceutical Co., Ltd.) with PBS to ¼ concentration was added in an amount of 150 μl/well. After the incubation at room temperature for 1 hour, buffer B was removed and the plate was washed with PBS once.
RPMI-8866 cells were incubated in Dulbecco modified Eagle medium containing 10 μg/ml of Calcein-AM (Wako Pure Chemical Industries, Ltd.) (SIGMA, hereinafter referred to as “DMEM”) at 37° C. for 30 minutes to label with fluorescence. The cells were again suspended in a binding buffer (20 mM HEPES, DMEM containing 0.1% BSA) containing 4 mM of MnCl2.
50 μl of a test substance of various concentrations obtained by the dilution with the binding buffer was added to the plate. Immediately thereafter, 50 μl (final volume: 100 μl/well) of the fluorescent RPMI-8866 cells (4×10^6 cells/ml) were added thereto, and they were incubated at room temperature for 30 minutes. After the shaking on a plate shaker (IKA MTS-4) at 800 rpm for 30 seconds, the solution was immediately removed to remove the unbound cells. The fluorescence quantity of the bound cells remaining in the wells was determined with a fluorescent plate reader (Wallac 1420 ARVO multi-label counter) (filter excitation wave length: 485 nm, emission wave length: 535 nm). The fluorescent strength thus obtained is proportional to the number of RPMI-8866 cells bound to VCAM-1 and remaining on the plate. The binding rate of each test material in various concentrations was determined while the fluorescent strength of the test material-free well was determined to be 100%. The concentration IC50 for the 50% binding inhibition was calculated.

Row | SMILES | IC50
1 | O=C(N[C@@H](Cc1ccc(N2C(=O)c3ccc([N+](=O)[O-])cc3C2=O)cc1)C(=O)O)c1c(Cl)cccc1Cl [Example 9] | 24 nM
2 | O=C(N[C@@H](Cc1ccc(N2C(=O)Cc3ccccc3C2=O)cc1)C(=O)O)c1c(Cl)cccc1Cl [Example 15] | 34 nM
3 | O=C(N[C@@H](Cc1ccc(N2Cc3ccccc3C2=O)cc1)C(=O)O)c1c(Cl)cccc1Cl [Example 17] | 140 nM
4 | O=C(N[C@@H](Cc1ccc(N2CC=CC2=O)cc1)C(=O)O)c1c(Cl)cccc1Cl [Example 25] | 160 nM
5 | O=C(N[C@@H](Cc1ccc(N2CC=CCC2=O)cc1)C(=O)O)c1c(Cl)cccc1Cl [Example 26] | 80 nM
6 | O=C(N[C@@H](Cc1ccc(N2CC=CCCC2=O)cc1)C(=O)O)c1c(Cl)cccc1Cl [Example 27] | 73 nM
7 | Cc1ccc(C)c2c1C(=O)N(c1ccc(C[C@H](NC(=O)c3c(Cl)cccc3Cl)C(=O)O)cc1)C2=O [Example 30] | 46 nM
8 | CC1CCC2C(=O)N(c3ccc(C[C@H](NC(=O)c4c(Cl)cccc4Cl)C(=O)O)cc3)C(=O)C2C1 (some centres unmarked) [Example 43] | 43 nM
9 | O=C(N[C@@H](Cc1ccc(N2C(=O)[C@@H]3[C@H](C2=O)[C@@H]2C=C[C@H]3CC2)cc1)C(=O)O)c1c(Cl)cccc1Cl [Example 44] | 39 nM
10 | O=C(N[C@@H](Cc1ccc(N2C(=O)C3CC3C2=O)cc1)C(=O)O)c1c(Cl)cccc1Cl (some centres unmarked) [Example 46] | 42 nM
11 | O=C(N[C@@H](Cc1ccc(N2C(=O)[C@H]3CC[C@H](c4ccccc4)C[C@H]3C2=O)cc1)C(=O)O)c1c(Cl)cccc1Cl [Example 47] | 92 nM
12 | CC1(C)[C@H]2CC[C@]1(C)C(=O)N(c1ccc(C[C@H](NC(=O)c3c(Cl)cccc3Cl)C(=O)O)cc1)C2=O [Example 49] | 60 nM
13 | Nc1cccc2c1C(=O)N(c1ccc(C[C@H](NC(=O)c3c(Cl)cccc3Cl)C(=O)O)cc1)C2=O [Example 71] | 230 nM
14 | O=C(N[C@@H](Cc1ccc(N2C(=O)c3cccc(OCc4ccccc4)c3C2=O)cc1)C(=O)O)c1c(Cl)cccc1Cl [Example 74] | 110 nM
15 | CCCCOc1cccc2c1C(=O)N(c1ccc(C[C@H](NC(=O)c3c(Cl)cccc3Cl)C(=O)O)cc1)C2=O [Example 75] | 55 nM
16 | O=C(N[C@@H](Cc1ccc(N2C(=O)c3ccc(O)cc3C2=O)cc1)C(=O)O)c1c(Cl)cccc1Cl [Example 77] | 73 nM
17 | COc1ccc2c(c1)C(=O)N(c1ccc(C[C@H](NC(=O)c3c(Cl)cccc3Cl)C(=O)O)cc1)C2=O [Example 78] | 42 nM
18 | CCOc1ccc2c(c1)C(=O)N(c1ccc(C[C@H](NC(=O)c3c(Cl)cccc3Cl)C(=O)O)cc1)C2=O [Example 79] | 86 nM
19 | O=C(N[C@@H](Cc1ccc(N2C(=O)c3ccc(OCc4ccccc4)cc3C2=O)cc1)C(=O)O)c1c(Cl)cccc1Cl [Example 80] | 80 nM
20 | O=C(N[C@@H](Cc1ccc(N2C(=O)Cc3ccccc3CC2=O)cc1)C(=O)O)c1c(Cl)cccc1Cl [Example 82] | 900 nM
21 | CC(=O)C1Cc2ccccc2C(=O)N1c1ccc(C[C@H](NC(=O)c2c(Cl)cccc2Cl)C(=O)O)cc1 (some centres unmarked) [Example 86] | 39 nM

The next molecules have a lower IC50 than those just listed; values first:

Row | IC50 | SMILES
22 | 9.7 nM | O=C(N[C@@H](Cc1ccc(N2C(=O)c3ccccc3C2=O)cc1)C(=O)O)c1c(Cl)cccc1Cl [Example 1]
23 | 11 nM | Cc1ccc2c(c1)C(=O)N(c1ccc(C[C@H](NC(=O)c3c(Cl)cccc3Cl)C(=O)O)cc1)C2=O [Example 6]
24 | 21 nM | O=C(N[C@@H](Cc1ccc(N2C(=O)c3cccc4cccc(c34)C2=O)cc1)C(=O)O)c1c(Cl)cccc1Cl [Example 16]
25 | 8.9 nM | CN(C)C(=O)c1ccc2c(c1)C(=O)N(c1ccc(C[C@H](NC(=O)c3c(Cl)cccc3Cl)C(=O)O)cc1)C2=O [Example 33]
26 | 5.8 nM | O=C(N[C@@H](Cc1ccc(N2C(=O)C3=C(CCCC3)C2=O)cc1)C(=O)O)c1c(Cl)cccc1Cl [Example 37]
27 | 13 nM | O=C(N[C@@H](Cc1ccc(N2C(=O)C3=C(SCCS3)C2=O)cc1)C(=O)O)c1c(Cl)cccc1Cl [Example 38]
28 | 18 nM | O=C(N[C@@H](Cc1ccc(N2C(=O)[C@@H]3CCCC[C@H]3C2=O)cc1)C(=O)O)c1c(Cl)cccc1Cl [Example 40]
29 | 21 nM | O=C(N[C@@H](Cc1ccc(N2C(=O)[C@@H]3[C@H](C2=O)[C@@H]2C=C[C@H]3C2)cc1)C(=O)O)c1c(Cl)cccc1Cl [Example 42]
30 | 19 nM | O=C(N[C@@H](Cc1ccc(N2C(=O)[C@H]3CC=CC[C@H]3C2=O)cc1)C(=O)O)c1c(Cl)cccc1Cl [Example 45]
31 | 21 nM | O=C(N[C@@H](Cc1ccc(N2C(=O)CC3(CCCC3)CC2=O)cc1)C(=O)O)c1c(Cl)cccc1Cl [Example 48]
32 | 10 nM | Cc1cccc2c1C(=O)N(c1ccc(C[C@H](NC(=O)c3c(Cl)cncc3Cl)C(=O)O)cc1)C2=O [Example 59]
33 | 8.5 nM | CCOc1cccc2c1C(=O)N(c1ccc(C[C@H](NC(=O)c3c(Cl)cccc3Cl)C(=O)O)cc1)C2=O [Example 73]
34 | 0.55 nM | Cc1cccc2c1C(=O)N(c1ccc(C[C@H](NC(=O)c3c(Cl)cc(-c4nnn[nH]4)cc3Cl)C(=O)O)cc1)C2=O [Example 83, (2S)-2-(2,6-dichloro-4-tetrazolyl-benzoylamino)-3-[4-(4-methyl-1,3-dioxo-1,3-dihydroisoindole-2-yl)phenyl] Propionic Acid]
35 | 0.6 nM | Cc1cccc2c1C(=O)N(c1ccc(C[C@H](NC(=O)c3c(Cl)cc(NS(C)(=O)=O)cc3Cl)C(=O)O)cc1)C2=O [Example 84]
